One series has as its system Stat5. The series can be described thus: Stat5 phosphorylation in CWR22Rv1 cells (IP/immunoblot). Particulars: 4 days. The series is classed as cell-based, human. The method, then: In order to evaluate whether the phosphate group of IST5 is critical for IST5 activity in cell-based assays, we compared the potency of IST5 (Figure 4A) to that of IST5-M (IST5 without the phosphate group) (Figure 4B) in inhibiting phosphorylation of Stat5 in PC and CML cells. CML (K562) cells and PC (CWR22Rv1) cells were cultured for 4 days with increasing concentrations of IST5 and IST5-M (Figure 4C,D). […] Collectively, these finding indicate that IST5 and IST5-M have similar efficacies in inhibiting phosphorylation of Stat5 in both CML and PC cells.
Figure 4 IST5 and the IST5-derivative lacking the phosphate group (IST5-M), both, inhibit Stat5 phosphorylation in CML and prostate cancer cell line with high efficacy. (A), chemical structure of IST5-002 (IST5). (B), chemical structure of IST5-M (IST5 without the phosphate group. (C), IST5 and IST5-M both inhibit Stat5 phosphorylation in CML cells (K562) with high efficacy. K562 cells were treated with IST5 and IST5-M for 4 days at the concentrations indicated. Whole cell lysates (WCL) were immunoblotted with anti-pYStat5 mAb, anti-Stat5 mAb and anti-actin mAb as loading control. (D), IST5 and IST5-M, both, decrease Stat5 phosphorylation in PC cells (CWR22Rv1). CWR22Rv1 cells were treated with increasing concentrations of IST5 and IST5-M for 4 days. Stat5 was immunoprecipitated (IP) followed by immunoblotting (WB) with anti-pYStat5 mAb and anti-Stat5 mAb. Whole cell lysates (WCL) were immunoblotted with anti-actin mAb as loading control.
Cell pellets were solubilized in the lysis buffer (10 mM Tris-HCl (pH 7.6), 5 mM EDTA, 50 mM sodium chloride, 30 mM sodium pyrophosphate, 50 mM sodium fluoride, 1 mM sodium orthovanadate, 1% Triton X-100, 1 mM phenylmethylsulfonyl fluoride, 5 µg/mL aprotinin, 1 µg/mL pepstatin A and 2 µg/mL leupeptin), and protein concentrations of clarified cell lysates were determined by a simplified Bradford method (Bio-Rad, Hercules, CA, USA). The whole cell lysates were immunoprecipitated with polyclonal antibodies (Table S1) followed by incubation with protein A-Sepharose beads (GE Healthcare, Chicago, IL, USA). The cell lysates and immunoprecipitated proteins were separated on 4–12% SDS-PAGE (Life Technologies, Brown Deer, WI, USA) and transferred electrophoretically to polyvinylidene fluoride membrane (Millipore). For immunoblotting, blocking buffer was tris-buffered saline and tween 20 (TBST, 0.15 M NaCl; 0.1% Tween 20; 50 mM Tris, pH 8.0) with 3% bovine serum albumin (BSA). The immunoreaction with the specific antibodies (Table S1) was detected by horseradish peroxidase-conjugated secondary antibodies followed by enhanced chemiluminescence (GE Healthcare).

The test system of series [1] is C57BL/6J and athymic nude mice. The series can be described thus: Acute and chronic toxicity studies, clinical observation and histology. In kind it is in vivo. As for the experimental part:
The acute and chronic toxicity studies were carried out in both male C57BL/6J and athymic nude mice (Table 3 and Table 4) using daily administration of IST5 vs. vehicle at doses of 0, 10, 30 and 100 mg/kg (n = 5/dose) as well as in female (data not shown) mice. There were no signs of anemia (hemoglobin-HGB; hematocrit-HCT), thrombocytopenia or leukopenia. In either acute or chronic toxicity studies, there was no mortality in the mice associated with IST5 treatment. The gross histology of the liver, spleen (Figure 6), kidney and brain were normal (28 d). […] IST5 had no effects on body weight, organ weight, appearance, respiration, or eye function. Of note, a number of the Jak2 kinase inhibitors in use or in clinical development have shown off-target inhibitory effects on TrkB kinase (a receptor for brain-derived neurotrophic factor), thereby causing neurological side-effects.
Figure 6 IST5 […] significant chronic toxicity in vivo in mice. The chronic toxicity studies were carried out in both male and female C57BL/6J and athymic nude mice by daily administration of IST5 vs. vehicle at doses of 0, 10, 30 and 100 mg/kg (n = 5/dose). At the end of the study, heart, kidney, liver, lung and spleen tissues were fixed and stained with hematoxylin and eosin. The gross histology of heart, liver, spleen, kidney, spleen and brain were all normal (28 d).
Forty athymic nude mice (8 weeks) (Crl:NU/NCr-Foxn1n) of either sex (20 males and 20 females) were randomized into four groups (n = 5/group) for either sex. The randomization of the mice was carried out based on their baseline body weight measured on day 0. IST5 or vehicle (0.3% hydroxypropyl cellulose, (Sigma-Aldrich, MO, St. Louis, MO, USA) were administered to the mice by i.p. injection for 28 days. The mice were observed daily for behavior, and body weights were measured on every 3rd day throughout the 28-day experimental protocol. The monitoring was started immediately after the compound administration and continued for 2 h for any acute signs of toxicity. In addition, the mice were monitored daily for any signs of toxicity using several clinical parameters. The clinical signs that were taken into consideration were as follows: 1) weight loss: rapid weight loss ([…]) or, weight loss of extended period time ([…]); 2) rapid growth of mass or masses; 3) paralysis or paresis (partial paralysis); 4) frank bleeding from any orifice; 5) lesions interfering with eating or drinking; 6) diarrhea (non-formed/soft stool or diarrhea liquid stool); 6) loss of body temperature; 7) appearance: rough coat, porphyrin staining (red or brown staining around eyes, nose, or along front paws, distended abdomen, alopecia; 8) eyes: ocular discharge, pale appearance, distinct icterus (jaundice or yellowing of the eyes); 9) respiration: coughing or wheezing, rales or crackling in the lungs, respiration increased or labored; 10) behavioral: hunched posture, huddling in a corner, lethargy, avoiding cagemate(s), head tilt, tremors (head, body, tail), spasticity (stiff muscles), ataxia (loss of voluntary muscle movement), seizures or convulsions, circling, persistent self-induced trauma, chattering or vocalizations, loss of startle response, loss of righting reflex. The clinical chemistry parameters measured were the same as those used for the acute toxicity study.
The sub-chronic toxicity study (10 days) was carried out in C57BL/6J mice (8 weeks) (stock 000664) (n = 10/dose group 5 of each sex). […]

As to `O=P(O)(O)OCC1OC(n2cnc3c(NCc4ccccc4)ncnc32)C(O)C1O` (stereo not shown) [IST5], the “inhibition of Stat5 phosphorylation” value in the series on Stat5 (2 µM, CWR22Rv1 cells) is recorded as 60–75%. Also, the 50% inhibitory concentration (IC50) with Stat5 (read-out: IC50, inhibition of Stat5 phosphorylation, CWR22Rv1 PC cells) is around 1.3 µM. Further, the “mortality associated with treatment” value in series [1] (acute or chronic toxicity studies, 10, 30 and 100 mg/kg) is listed as “no mortality”. For the same compound, the “signs of anemia, thrombocytopenia or leukopenia” value in series [1] (daily 10, 30 and 100 mg/kg) is listed as “no signs”. In series [1] (mouse, in vivo), the “adverse effects on blood clinical chemistry (blood urea, liver enzymes, glucose, albumin)” value is “no adverse effects”; the “effects on body weight, organ weight, appearance, respiration, or eye function” value was “no effects”; the “gross histology of liver, spleen, kidney and brain” value is “normal”.
